Experimental findings from US8350027B2, “Dual-acting pyrazole antihypertensive agents” (Theravance, Inc., priority 2009, dated 2013) are described below.

Where only a bound is given, the exact number is not on record here.

In one assay the target is T1, human AT1 receptor (Homo sapiens, UniProt P30556).
T1 construct: expressed in transfected cells; host or cells: CHO-K1
T1 sequence (P30556 1-359): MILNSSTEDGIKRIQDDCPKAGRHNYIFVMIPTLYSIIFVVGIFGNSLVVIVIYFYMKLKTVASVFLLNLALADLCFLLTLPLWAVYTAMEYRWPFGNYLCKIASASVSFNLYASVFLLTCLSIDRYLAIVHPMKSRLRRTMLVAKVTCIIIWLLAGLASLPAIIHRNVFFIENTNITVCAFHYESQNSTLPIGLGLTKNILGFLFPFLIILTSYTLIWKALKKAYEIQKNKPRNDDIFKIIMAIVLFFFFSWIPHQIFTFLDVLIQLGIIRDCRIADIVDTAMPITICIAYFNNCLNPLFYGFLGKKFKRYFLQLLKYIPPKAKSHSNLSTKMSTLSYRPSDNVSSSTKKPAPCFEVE
Description: AT1 radioligand binding assay (displacement of [Eu]AngII). As to conditions: membranes of CHO-K1 cells expressing cloned human AT1 receptor; values given as lower bounds; read-out: AT1 pKi (converted). The essentials:
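Membranes from CHO-K1 cells stably expressing cloned human AT1, 0.2 μg protein, in 50 mM Tris/HCl pH 7.5, 5 mM MgCl2, 0.025% BSA. Compounds displaced [Eu]AngII over 120 min in the dark at room temperature or 37° C; filter-bound TRF read. Nonspecific binding with 10 μM angiotensin II; IC50 converted to Ki via Cheng-Prusoff, reported as pKi.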

Another assay concerns the target T2, NEP enzyme (Homo sapiens, UniProt P08473).
T2 construct: purchased R&D Systems, Minneapolis, Minn; 1182-ZN
Description: NEP enzyme inhibition assay (fluorogenic peptide substrate). Conditions: values given as lower bounds; * = prodrugs, may not exhibit NEP activity in an in vitro assay; read-out: NEP pIC50 (converted). It is filed as biochemical. The essentials:
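Recombinant human NEP was run with Mca-BK2 (10 μM) at room temperature in Tris buffer with 1 μM Zn. Compounds (10 μM–20 pM, 12 points) were pre-equilibrated 10 min, then reacted 20 min and acid-stopped. Fluorescence ex 320/em 405 nm, one-site competition fit gives pIC50. Thiol compounds may be pre-treated with 400 μM TCEP.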

T2 sequence (P08473 52-750 limits assumed): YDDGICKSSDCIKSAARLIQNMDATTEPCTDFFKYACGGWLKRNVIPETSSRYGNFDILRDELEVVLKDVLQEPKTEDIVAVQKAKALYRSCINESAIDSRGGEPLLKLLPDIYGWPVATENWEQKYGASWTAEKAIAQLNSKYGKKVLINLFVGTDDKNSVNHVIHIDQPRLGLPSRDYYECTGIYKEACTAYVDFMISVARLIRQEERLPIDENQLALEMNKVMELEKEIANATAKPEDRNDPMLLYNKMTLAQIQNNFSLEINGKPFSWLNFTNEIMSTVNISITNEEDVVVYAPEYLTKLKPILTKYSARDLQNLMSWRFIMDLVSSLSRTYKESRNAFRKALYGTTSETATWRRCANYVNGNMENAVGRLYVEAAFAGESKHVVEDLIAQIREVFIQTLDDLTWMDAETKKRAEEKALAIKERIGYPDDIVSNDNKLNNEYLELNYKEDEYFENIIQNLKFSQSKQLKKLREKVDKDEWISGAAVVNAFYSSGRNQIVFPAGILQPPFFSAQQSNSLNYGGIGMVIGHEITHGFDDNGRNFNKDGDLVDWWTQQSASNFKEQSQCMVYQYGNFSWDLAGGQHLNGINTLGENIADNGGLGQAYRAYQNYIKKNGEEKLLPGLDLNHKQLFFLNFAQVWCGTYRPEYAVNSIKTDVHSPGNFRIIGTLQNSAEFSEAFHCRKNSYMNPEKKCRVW

With `CCCc1cc(C(=O)N[C@@H](CS)Cc2ccccc2)nn1Cc1ccc(-c2ccccc2-c2nnn[nH]2)cc1` [Example 3-6, 5-Propyl-1-[2′-(1H-tetrazol-5-yl)biphenyl-4-ylmethyl]-1H-pyrazole-3-carboxylic acid ((R)-1-benzyl-2-mercaptoethyl)amide], the Ki on human AT1 receptor is ≤ 10 nM. Moreover, the IC50 at NEP enzyme is ≤ 100 nM.

`CCCc1cc(C(=O)N[C@@H](CC(=O)O)Cc2ccccc2)nn1Cc1cnc(-c2ccccc2S(=O)(=O)NC(C)=O)cn1` [Example 17-4, (R)-3-({1-[5-(2-Acetylsulfamoylphenyl)pyrazin-2-ylmethyl]-5-propyl-1H-pyrazole-3-carbonyl}amino)-4-phenylbutyric acid]: the Ki on human AT1 receptor is ≤ 10 nM. Moreover, the IC50 on NEP enzyme is ≤ 1000 nM.

As for `CCCc1cc(C(=O)N[C@@H](CC(=O)O)Cc2ccccc2C(F)(F)F)nn1Cc1ccc(-c2ccccc2-c2nnn[nH]2)cc1` [Example 3-36, (R)-3-({5-Propyl-1-[2′-(1H-tetrazol-5-yl)-biphenyl-4-ylmethyl]-1H-pyrazole-3-carbonyl}amino)-4-(2-trifluoromethylphenyl)butyric acid], the Ki on human AT1 receptor is ≤ 100 nM. Moreover, the IC50 on NEP enzyme was ≤ 1000 nM.

Regarding `CCCc1cc(C(=O)N[C@@H](CC(=O)O)Cc2ccccc2Cl)nn1Cc1ccc(-c2ccccc2S(=O)(=O)NC(C)=O)cn1` [Example 15-4, (R)-3-({1-[5-(2-Acetylsulfamoylphenyl)pyridin-2-ylmethyl]-5-propyl-1H-pyrazole-3-carbonyl}amino)-4-(2-chlorophenyl)butyric acid], the Ki on human AT1 receptor was ≤ 100 nM. The IC50 at NEP enzyme is ≤ 1000 nM.

As to `CCCc1cc(C(=O)N[C@H](Cc2ccccc2)[C@@H](O)C(=O)O)nn1Cc1ccc(-c2ccccc2S(=O)(=O)NC(=O)N2CCCC2)cc1` [Example 7-21, (2R,3R)-2-Hydroxy-4-phenyl-3-[(5-propyl-1-{2′-[(pyrrolidine-1-carbonyl)sulfamoyl]biphenyl-4-ylmethyl}-1H-pyrazole-3-carbonyl)amino]butyric acid], at human AT1 receptor, the Ki was ≤ 100 nM. Also, the IC50 on NEP enzyme is ≤ 100 nM.

`CCCc1cc(C(=O)N[C@@H](CC(=O)O)Cc2ccccc2Br)nn1Cc1ccc(-c2ccccc2-c2nnn[nH]2)cc1` [Example 3-13, (R)-4-(2-Bromophenyl)-3-({5-propyl-1-[2′-(1H-tetrazol-5-yl)-biphenyl-4-ylmethyl]-1H-pyrazole-3-carbonyl}amino)butyric acid]: on human AT1 receptor, the Ki is ≤ 10 nM. The IC50 on NEP enzyme is ≤ 1000 nM.

For `CCOc1cc(C(=O)N[C@H](Cc2ccccc2)[C@@H](O)C(=O)O)nn1Cc1ccc(-c2ccccc2-c2nnn[nH]2)cc1` [Example 3-9, (2R,3R)-3-({5-Ethoxy-1-[2′-(1H-tetrazol-5-yl)biphenyl-4-ylmethyl]-1H-pyrazole-3-carbonyl}amino)-2-hydroxy-4-phenylbutyric acid], the Ki on human AT1 receptor was ≤ 100 nM. Besides, the IC50 on NEP enzyme is ≤ 1000 nM.

Regarding `CCCc1cc(C(=O)N[C@H](Cc2ccccc2)[C@@H](O)C(=O)O)nn1Cc1ccc(-c2ccccc2S(=O)(=O)NC(=O)OCC)cc1` [Example 7-7, (2R,3R)-3-(1-((2′-(N-(ethoxycarbonyl)sulfamoyl)biphenyl-4-yl)methyl)-5-propyl-1H-pyrazole-3-carboxamido)-2-hydroxy-4-phenylbutanoic acid], the Ki on human AT1 receptor is ≤ 10 nM. The IC50 on NEP enzyme is ≤ 1000 nM.

Consider `CCCc1cc(C(=O)N[C@@H](CC(=O)NO)Cc2ccccc2)nn1Cc1ccc(-c2ccccc2S(=O)(=O)NC(C)=O)cc1` [Example 6-18, 1-(2′-Acetylsulfamoylbiphenyl-4-ylmethyl)-5-propyl-1H-pyrazole-3-carboxylic acid ((R)-1-benzyl-2-hydroxycarbamoylethyl)amide], for which the Ki on human AT1 receptor is ≤ 10 nM. For the same compound, the IC50 at NEP enzyme is ≤ 100 nM.

For `CCCc1cc(C(=O)N[C@H](Cc2ccccc2)[C@@H](O)C(=O)O)nn1Cc1ccc(-c2ccccc2-c2nnn[nH]2)cc1F` [Example 3-23, (2R,3R)-3-(1-((3-fluoro-2′-(1H-tetrazol-5-yl)biphenyl-4-yl)methyl)-5-propyl-1H-pyrazole-3-carboxamido)-2-hydroxy-4-phenylbutanoic acid], the Ki on human AT1 receptor is ≤ 10 nM. At NEP enzyme, the IC50 was ≤ 100 nM.

`CCCc1cc(C(=O)N[C@@H](CC(=O)O)Cc2ccccc2)nn1Cc1ccc(-c2ccccc2-c2nnn[nH]2)nc1` [Example 14-6, (R)-4-Phenyl-3-[(5-propyl-1-{6-[2-(1H-tetrazol-5-yl)-phenyl]-pyridin-3-ylmethyl}-1H-pyrazole-3-carbonyl)amino]butyric acid]: on human AT1 receptor, the Ki was ≤ 10 nM. Further, the IC50 on NEP enzyme was ≤ 100 nM.

Consider `CCCc1cc(C(=O)N[C@H](Cc2ccccc2)[C@@H](O)C(=O)O)nn1Cc1ccc(-c2ccccc2-c2nnn[nH]2)c(F)c1` [Example 3-10, (2R,3R)-3-(1-((2-Fluoro-2′-(1H-tetrazol-5-yl)biphenyl-4-yl)methyl)-5-propyl-1H-pyrazole-3-carboxamido)-2-hydroxy-4-phenylbutanoic acid], for which the Ki on human AT1 receptor is ≤ 10 nM. Further, the IC50 at NEP enzyme was ≤ 1000 nM.

As for `CCc1cc(C(=O)N[C@H](Cc2ccccc2)[C@@H](O)C(=O)O)nn1Cc1ccc(-c2ccccc2-c2nnn[nH]2)cc1F` [Example 3-37, (2R,3R)-3-({5-Ethyl-1-[3-fluoro-2′-(1H-tetrazol-5-yl)-biphenyl-4-ylmethyl]-1H-pyrazole-3-carbonyl}amino)-2-hydroxy-4-phenylbutyric acid], the Ki at human AT1 receptor is ≤ 100 nM. Besides, on NEP enzyme, the IC50 was ≤ 10000 nM.

Regarding `CCCc1cc(C(=O)N[C@@H](CC(=O)O)Cc2ccccc2C(F)(F)F)nn1Cc1ccc(-c2ccccc2-c2nnn[nH]2)cc1F` [Example 3-21, (R)-3-(1-((3-fluoro-2′-(1H-tetrazol-5-yl)biphenyl-4-yl)methyl)-5-propyl-1H-pyrazole-3-carboxamido)-4-(2-(trifluoromethyl)phenyl)butanoic acid], on human AT1 receptor, the Ki is ≤ 100 nM. Besides, the IC50 at NEP enzyme was ≤ 1000 nM.

For `CCCc1cc(C(=O)N[C@@H](CS)Cc2ccccc2)nn1Cc1ccc(-c2ccccc2-c2nc(=O)o[nH]2)cc1` [Example 16-1, 1-[2′-(5-Oxo-2,5-dihydro-[1,2,4]oxadiazol-3-yl)biphenyl-4-ylmethyl]-5-propyl-1H-pyrazole-3-carboxylic acid ((R)-1-benzyl-2-mercaptoethyl)amide], on human AT1 receptor, the Ki was ≤ 10 nM. For the same compound, the IC50 on NEP enzyme is ≤ 100 nM.

On to `CCCc1cc(C(=O)N[C@H](Cc2ccccc2)[C@@H](O)C(=O)O)nn1Cc1ccc(-c2ccccc2S(=O)(=O)NC(=O)c2ccncc2)cc1` [Example 7-4, (2R,3R)-2-Hydroxy-4-phenyl-3-[(5-propyl-1-{2′-[(pyridine-4-carbonyl)sulfamoyl]biphenyl-4-ylmethyl}-1H-pyrazole-3-carbonyl)amino]butyric acid], for which, on human AT1 receptor, the Ki is ≤ 10 nM. The IC50 at NEP enzyme was ≤ 1000 nM.

Regarding `CCCc1cc(C(=O)N[C@@H](CC(=O)O)Cc2ccccc2C(F)(F)F)nn1Cc1ccc(-c2ccccc2-c2nnn[nH]2)c(F)c1` [Example 3-19, (R)-3-({1-[2-Fluoro-2′-(1H-tetrazol-5-yl)-biphenyl-4-ylmethyl]-5-propyl-1H-pyrazole-3-carbonyl}amino)-4-(2-trifluoromethylphenyl)butyric acid], the Ki at human AT1 receptor was ≤ 100 nM. Besides, at NEP enzyme, the IC50 was ≤ 1000 nM.

As for `CCCc1cc(C(=O)N[C@H](Cc2ccccc2)[C@@H](O)C(=O)O)nn1Cc1ccc(-c2ccccc2S(=O)(=O)NC(=O)NCC)cc1` [Example 7-1, (2R,3R)-3-(1-((2′(N-(ethylcarbamoyl)sulfamoyl)biphenyl-4-yl)methyl)-5-propyl-1H-pyrazole-3-carboxamido)-2-hydroxy-4-phenylbutanoic acid], on human AT1 receptor, the Ki is ≤ 10 nM. On NEP enzyme, the IC50 was ≤ 1000 nM.

On to `CCCc1cc(C(=O)N[C@@H](CC(=O)O)Cc2ccccc2Cl)nn1Cc1ccc(-c2ccccc2-c2nnn[nH]2)cc1F` [Example 3-20, (R)-4-(2-chlorophenyl)-3-(1-((3-fluoro-2′-(1H-tetrazol-5-yl)biphenyl-4-yl)methyl)-5-propyl-1H-pyrazole-3-carboxamido)butanoic acid], for which the Ki at human AT1 receptor is ≤ 100 nM. Further, the IC50 on NEP enzyme was ≤ 1000 nM.

As to `CCCc1cc(C(=O)N[C@H](Cc2ccccc2)[C@@H](O)C(=O)O)nn1Cc1ccc(-c2ccccc2-c2nnn[nH]2)nc1` [Example 14-1, (2R,3R)-2-Hydroxy-4-phenyl-3-[(5-propyl-1-{6-[2-(1H-tetrazol-5-yl)-phenyl]pyridin-3-ylmethyl}-1H-pyrazole-3-carbonyl)amino]butyric acid], the Ki at human AT1 receptor is ≤ 10 nM. On NEP enzyme, the IC50 is ≤ 100 nM.

`CCCc1cc(C(=O)N[C@H](Cc2ccccc2)[C@@H](O)C(=O)O)nn1Cc1ccc(-c2ccccc2S(=O)(=O)NC(=O)[C@@H](C)O)cc1` [Example 7-16, (2R,3R)-2-Hydroxy-3-({1-[2′-((R)-2-hydroxypropionylsulfamoyl)biphenyl-4-ylmethyl]-5-propyl-1H-pyrazole-3-carbonyl}amino)-4-phenylbutyric acid]: the Ki at human AT1 receptor was ≤ 10 nM. For the same compound, at NEP enzyme, the IC50 is ≤ 100 nM.
